Source: paper PMC4410398, “Influence of Drug Resistance Mutations on the Activity of HIV-1 Subtypes A and B Integrases: a Comparative Study” (Acta Naturae, 2015)

Key:
[1] = test system: HIV-1 subtype B (clone pNL4-3) carrying G118R; set-up: method as in PMID 24710029; settings: cited from earlier work
[2] = test system: HIV-1 subtype CRF02_A/G isolate carrying a G118R substitution in the IN gene; set-up: method as in PMID 24710029; settings: HIV-1 subtype CRF02_A/G isolate carrying G118R in the IN gene; cited from earlier work
INB Q148K = molecular target: T1, INB Q148K (Human immunodeficiency virus type 1 group M subtype B, UniProt P04585, Q1295K); experiment: Inhibition of homologous strand transfer reaction, INB Q148K; assay type: biochemical, HIV-1 subtype B strain HXB-2
T1 construct: The viral enzyme integrase (IN), which catalyzes the integration; His6 (N); made in house; host or cells: Escherichia coli Rosetta (DE3), pET-15b

INA Q148K = INA Q148K (Human immunodeficiency virus type 1 group M subtype A, UniProt P24740, Q1288K/S1259P); assay type: biochemical, HIV-1 subtype A strain FSU-A
INB G140S = molecular target: T2, INB G140S (Human immunodeficiency virus type 1 group M subtype B, UniProt P04585, G1287S); experiment: Inhibition of homologous strand transfer reaction, INB G140S; assay type: biochemical, HIV-1 subtype B strain HXB-2
T2 construct: The viral enzyme integrase (IN), which catalyzes the integration; His6 (N); made in house; host or cells: Escherichia coli Rosetta (DE3), pET-15b

INB = test system: INB; set-up: method as in PMID 23075516; settings: literature value for INB; cited from earlier work
INA E138K/Q148K = INA E138K/Q148K (Human immunodeficiency virus type 1 group M subtype A, UniProt P24740, E1278K/Q1288K/S1259P); assay type: biochemical, HIV-1 subtype A strain FSU-A
INA E138K = INA E138K (Human immunodeficiency virus type 1 group M subtype A, UniProt P24740, E1278K/S1259P); assay type: biochemical, HIV-1 subtype A strain FSU-A
INA G140S/Q148K = INA G140S/Q148K (Human immunodeficiency virus type 1 group M subtype A, UniProt P24740, G1280S/Q1288K/S1259P); assay type: biochemical, HIV-1 subtype A strain FSU-A
INB E138K/Q148K = molecular target: T3, INB E138K/Q148K (Human immunodeficiency virus type 1 group M subtype B, UniProt P04585, E1285K/Q1295K); experiment: Inhibition of homologous strand transfer reaction, INB E138K/Q148K; assay type: biochemical, HIV-1 subtype B strain HXB-2
T3 construct: The viral enzyme integrase (IN), which catalyzes the integration; His6 (N); made in house; host or cells: Escherichia coli Rosetta (DE3), pET-15b

[3] = molecular target: T4, INB (integrase of HIV-1 subtype B strain HXB-2), wild type (Human immunodeficiency virus type 1 group M subtype B, UniProt P04585); assay type: biochemical
T4 construct: The viral enzyme integrase (IN), which catalyzes the integration; His6 (N); made in house; host or cells: Escherichia coli Rosetta (DE3), pET-15b

INB G118R/E138K = molecular target: T5, INB G118R/E138K (Human immunodeficiency virus type 1 group M subtype B, UniProt P04585, E1285K/G1265R); experiment: Inhibition of homologous strand transfer reaction, INB G118R/E138K; assay type: biochemical, HIV-1 subtype B strain HXB-2
T5 construct: The viral enzyme integrase (IN), which catalyzes the integration; His6 (N); made in house; host or cells: Escherichia coli Rosetta (DE3), pET-15b

INA G140S = INA G140S (Human immunodeficiency virus type 1 group M subtype A, UniProt P24740, G1280S/S1259P); assay type: biochemical, HIV-1 subtype A strain FSU-A
INA G118R/E138K = INA G118R/E138K (Human immunodeficiency virus type 1 group M subtype A, UniProt P24740, E1278K/G1258R/S1259P); assay type: biochemical, HIV-1 subtype A strain FSU-A
INB G140S/Q148K = molecular target: T6, INB G140S/Q148K (Human immunodeficiency virus type 1 group M subtype B, UniProt P04585, G1287S/Q1295K); experiment: Inhibition of homologous strand transfer reaction, INB G140S/Q148K; assay type: biochemical, HIV-1 subtype B strain HXB-2
T6 construct: The viral enzyme integrase (IN), which catalyzes the integration; His6 (N); made in house; host or cells: Escherichia coli Rosetta (DE3), pET-15b

[4] = molecular target: INA (consensus integrase of HIV-1 subtype A strain FSU-A), wild type (Human immunodeficiency virus type 1 group M subtype A, UniProt P24740, S1259P); assay type: biochemical
INB E138K = molecular target: T7, INB E138K (Human immunodeficiency virus type 1 group M subtype B, UniProt P04585, E1285K); experiment: Inhibition of homologous strand transfer reaction, INB E138K; assay type: biochemical, HIV-1 subtype B strain HXB-2
T7 construct: The viral enzyme integrase (IN), which catalyzes the integration; His6 (N); made in house; host or cells: Escherichia coli Rosetta (DE3), pET-15b

INA G118R = INA G118R (Human immunodeficiency virus type 1 group M subtype A, UniProt P24740, G1258R/S1259P); assay type: biochemical, HIV-1 subtype A strain FSU-A
INB G118R = molecular target: T8, INB G118R (Human immunodeficiency virus type 1 group M subtype B, UniProt P04585, G1265R); experiment: Inhibition of homologous strand transfer reaction, INB G118R; assay type: biochemical, HIV-1 subtype B strain HXB-2
T8 construct: The viral enzyme integrase (IN), which catalyzes the integration; His6 (N); made in house; host or cells: Escherichia coli Rosetta (DE3), pET-15b

[5] = homologous strand transfer, 2 h, 100 nM IN, read-out: Inhibitory activity, IC50

For `C[C@@H]1CCO[C@H]2Cn3cc(C(=O)NCc4ccc(F)cc4F)c(=O)c(O)c3C(=O)N12` [DTG, dolutegravir], the “FC (resistance)” value [1] is listed as 10 and the “FC (resistance)” value [2] is listed as greater than 100.
For `CN(C)S(=O)(=O)c1cc(O)c(O)c2c1CN(Cc1ccc(F)c(Cl)c1)C2=O` [XZ-259], the “ratio of IC50 for mutants over wt (FC)” value (INB Q148K) was 9.2, the IC50 (INB Q148K; [5]) was 0.6 ± 0.1 µM and the “ratio of IC50 for mutants over wt (FC)” value (INA Q148K) was 8.8. The IC50 (INA Q148K; [5]) was 0.35 ± 0.1 µM, the “ratio of IC50 for mutants over wt (FC)” value (INB G140S) was 2.3 and the IC50 (INB G140S; [5]) was 0.15 ± 0.05 µM. The IC50 (INB) was 0.077 µM, the “ratio of IC50 for mutants over wt (FC)” value (INA E138K/Q148K) was 5 and the IC50 (INA E138K/Q148K; [5]) was 0.2 ± 0.05 µM. For the same compound, the “ratio of IC50 for mutants over wt (FC)” value (INA E138K) was 1.25, the IC50 (INA E138K; [5]) was 0.05 ± 0.015 µM and the “ratio of IC50 for mutants over wt (FC)” value (INA G140S/Q148K) was 15. For the same compound, the IC50 (INA G140S/Q148K; [5]) was 0.6 ± 0.15 µM, the “ratio of IC50 for mutants over wt (FC)” value (INB E138K/Q148K) was 7.7 and the IC50 (INB E138K/Q148K; [5]) was 0.5 ± 0.2 µM. For the same compound, the “ratio of IC50 for mutants over wt (FC)” value [3] was 1, the IC50 [3, 5] was 0.065 ± 0.01 µM and the “ratio of IC50 for mutants over wt (FC)” value (INB G118R/E138K) was 1.2. For the same compound, the IC50 (INB G118R/E138K; [5]) was 0.08 ± 0.015 µM, the “ratio of IC50 for mutants over wt (FC)” value (INA G140S) was 3.8 and the IC50 (INA G140S; [5]) was 0.15 ± 0.05 µM. For the same compound, the “ratio of IC50 for mutants over wt (FC)” value (INA G118R/E138K) was 0.75, the IC50 (INA G118R/E138K; [5]) was 0.03 ± 0.01 µM and the “ratio of IC50 for mutants over wt (FC)” value (INB G140S/Q148K) was 13. For the same compound, the IC50 (INB G140S/Q148K; [5]) was 0.85 ± 0.1 µM, the “ratio of IC50 for mutants over wt (FC)” value [4] was 1 and the IC50 [4, 5] was 0.04 ± 0.015 µM. For the same compound, the “ratio of IC50 for mutants over wt (FC)” value (INB E138K) was 1, the IC50 (INB E138K; [5]) was 0.07 ± 0.01 µM and the “ratio of IC50 for mutants over wt (FC)” value (INA G118R) was 1. The IC50 (INA G118R; [5]) was 0.04 ± 0.01 µM, the “ratio of IC50 for mutants over wt (FC)” value (INB G118R) was 1.2 and the IC50 (INB G118R; [5]) was 0.08 ± 0.02 µM.
